{
  "source": "patent US12522595B2",
  "about": "“Bicyclic ether O-glycoprotein-2-acetamido-2-deoxy-3-D-glucopyranosidase inhibitors” (BIOGEN MA INC., priority 2019, dated 2026)",
  "data": [
    {"target": "T1, Recombinant full length human OGA enzyme (Homo sapiens, UniProt O60502)", "T1 construct": "Recombinant full length human OGA enzyme was purchased from Origene; purchased Origene", "T1 sequence (O60502 1-916)": "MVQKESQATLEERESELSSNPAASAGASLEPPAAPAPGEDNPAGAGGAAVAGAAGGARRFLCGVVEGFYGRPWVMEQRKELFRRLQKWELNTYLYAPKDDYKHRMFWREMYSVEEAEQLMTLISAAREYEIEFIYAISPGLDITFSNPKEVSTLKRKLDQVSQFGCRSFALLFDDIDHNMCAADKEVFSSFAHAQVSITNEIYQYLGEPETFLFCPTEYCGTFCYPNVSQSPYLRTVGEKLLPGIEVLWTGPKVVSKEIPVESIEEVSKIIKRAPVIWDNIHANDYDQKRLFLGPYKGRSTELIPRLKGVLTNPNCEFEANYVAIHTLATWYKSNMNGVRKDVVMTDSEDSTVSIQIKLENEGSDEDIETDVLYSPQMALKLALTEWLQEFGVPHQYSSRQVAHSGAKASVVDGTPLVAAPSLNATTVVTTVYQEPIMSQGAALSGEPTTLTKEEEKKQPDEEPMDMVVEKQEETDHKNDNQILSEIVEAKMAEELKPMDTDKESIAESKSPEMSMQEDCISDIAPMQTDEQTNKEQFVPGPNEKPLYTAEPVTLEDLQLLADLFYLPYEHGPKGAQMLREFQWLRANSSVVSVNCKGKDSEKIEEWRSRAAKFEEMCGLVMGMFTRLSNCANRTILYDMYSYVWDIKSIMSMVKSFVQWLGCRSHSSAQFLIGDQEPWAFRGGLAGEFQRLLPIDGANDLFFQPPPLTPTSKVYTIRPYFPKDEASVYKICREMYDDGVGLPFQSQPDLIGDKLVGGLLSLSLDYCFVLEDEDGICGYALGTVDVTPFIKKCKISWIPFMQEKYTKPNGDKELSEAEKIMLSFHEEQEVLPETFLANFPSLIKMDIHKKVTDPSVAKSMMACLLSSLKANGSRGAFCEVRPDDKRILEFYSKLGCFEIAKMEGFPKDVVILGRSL", "assay": "OGA enzyme inhibition biochemical assay", "settings": "1 nM OGA, 100 μM 4-MUGlcNAc (Km), pH 6.4, 90 minutes at room temperature, 10-point dose-response from 20 μM", "in_short": "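1 nM OGA with 100 μM 4-MUGlcNAc (Km) in McIlvaine buffer pH 6.4, 0.01% BSA, 90 min at room temperature; quenched with 3M glycine pH 10, fluorescence Ex 355/Em 460 nm. 10-point, 4-fold dilutions from 20 μM; 4-parameter variable-slope fit.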", "units": {"IC50": "nM"}, "values": [
      {"smiles": "CC(=O)Nc1nc(F)c(CN2C[C@H](Oc3ncnc4c(F)cccc34)C[C@@H]2C)s1", "note": "[Example 122, N-(4-fluoro-5-(((2S,4R)-4-((8-fluoroquinazolin-4-yl)oxy)-2-methylpyrrolidin-1-yl)methyl)thiazol-2-yl)acetamide]", "IC50": "< 1"},
      {"smiles": "CC(=O)Nc1nc(F)c(CN2C[C@H](Oc3nccc4cn(C)nc34)C[C@@H]2C)s1", "note": "[Example 137, N-(4-fluoro-5-(((2S,4R)-2-methyl-4-((2-methyl-2H-pyrazolo[3,4-c]pyridin-7-yl)oxy)pyrrolidin-1-yl)methyl)thiazol-2-yl)acetamide]", "IC50": 4.3},
      {"smiles": "COc1ccc2ccc(O[C@@H]3C[C@H](C)N(Cc4sc(NC(C)=O)nc4F)C3)nc2c1", "note": "[Example 80, N-(4-fluoro-5-(((2S,4R)-4-((7-methoxyquinolin-2-yl)oxy)-2-methylpyrrolidin-1-yl)methyl)thiazol-2-yl)acetamide]", "IC50": "< 1"},
      {"smiles": "CC(=O)Nc1nc(F)c(CN2C[C@H](Oc3ccc4ncnn4c3)C[C@@H]2C)s1", "note": "[Example 172, N-(5-(((2S,4R)-4-([1,2,4]triazolo[1,5-a]pyridin-6-yloxy)-2-methylpyrrolidin-1-yl)methyl)-4-fluorothiazol-2-yl)acetamide]", "IC50": "< 1"},
      {"smiles": "CC(=O)Nc1nc(F)c(CN2C[C@H](Oc3ncc4ccn(C)c4n3)C[C@@H]2C)s1", "note": "[Example 110, N-(4-fluoro-5-(((2S,4R)-2-methyl-4-((7-methyl-7H-pyrrolo[2,3-d]pyrimidin-2-yl)oxy)pyrrolidin-1-yl)methyl)thiazol-2-yl)acetamide]", "IC50": "< 1"},
      {"smiles": "CC(=O)Nc1ncc(CN2C[C@H](Oc3ccc4sccc4n3)C[C@@H]2C)s1", "note": "[Example 4, N-(5-(((2S,4R)-2-methyl-4-(thieno[3,2-b]pyridin-5-yloxy)pyrrolidin-1-yl)methyl)thiazol-2-yl)acetamide]", "IC50": "< 1"},
      {"smiles": "CC(=O)Nc1ncc(CN2C[C@H](Oc3nc4ccccc4cc3C)C[C@@H]2C)s1", "note": "[Example 29, N-(5-(((2S,4R)-2-methyl-4-((3-methylquinolin-2-yl)oxy)pyrrolidin-1-yl)methyl)thiazol-2-yl)acetamide]", "IC50": 5.5},
      {"smiles": "CC(=O)Nc1ncc(CN2C[C@H](Oc3cc4nc(C)cn4cn3)C[C@@H]2C)s1", "note": "[Example 40, N-(5-(((2S,4R)-2-methyl-4-((2-methylimidazo[1,2-c]pyrimidin-7-yl)oxy)pyrrolidin-1-yl)methyl)thiazol-2-yl)acetamide]", "IC50": "< 1"},
      {"smiles": "CC(=O)Nc1nc(F)c(CN2C[C@H](Oc3ccc4cccnc4n3)C[C@@H]2C)s1", "note": "[Example 82, N-(5-(((2S,4R)-4-((1,8-naphthyridin-2-yl)oxy)-2-methylpyrrolidin-1-yl)methyl)-4-fluorothiazol-2-yl)acetamide]", "IC50": "< 1"},
      {"smiles": "CC(=O)Nc1nc(F)c(CN2C[C@H](Oc3cc4cn(C)nc4cn3)C[C@@H]2C)s1", "note": "[Example 89, N-(4-fluoro-5-(((2S,4R)-2-methyl-4-((2-methyl-2H-pyrazolo[3,4-c]pyridin-5-yl)oxy)pyrrolidin-1-yl)methyl)thiazol-2-yl)acetamide]", "IC50": "< 1"},
      {"smiles": "CC(=O)Nc1nc(F)c(CN2C[C@H](Oc3nccc4ncnn34)C[C@@H]2C)s1", "note": "[Example 145, N-(5-(((2S,4R)-4-([1,2,4]triazolo[1,5-c]pyrimidin-5-yloxy)-2-methylpyrrolidin-1-yl)methyl)-4-fluorothiazol-2-yl)acetamide]", "IC50": "< 1"},
      {"smiles": "CC(=O)Nc1ncc(CN2C[C@H](Oc3nccc4cc(F)ccc34)C[C@@H]2C)s1", "note": "[Example 27, N-(5-(((2S,4R)-4-((6-fluoroisoquinolin-1-yl)oxy)-2-methylpyrrolidin-1-yl)methyl)thiazol-2-yl)acetamide]", "IC50": 4},
      {"smiles": "CC(=O)Nc1ncc(CN2C[C@H](Oc3ncnc4cc(OC(F)F)ccc34)C[C@@H]2C)s1", "note": "[Example 14, N-(5-(((2S,4R)-4-((7-(difluoromethoxy)quinazolin-4-yl)oxy)-2-methylpyrrolidin-1-yl)methyl)thiazol-2-yl)acetamide]", "IC50": "< 1"},
      {"smiles": "CC(=O)Nc1ncc(CN2C[C@H](Oc3cc4c(Cl)ccnc4cc3F)C[C@@H]2C)s1", "note": "[Example 7, N-(5-(((2S,4R)-4-((4-chloro-7-fluoroquinolin-6-yl)oxy)-2-methylpyrrolidin-1-yl)methyl)thiazol-2-yl)acetamide]", "IC50": "< 1"},
      {"smiles": "CC(=O)Nc1nc(F)c(CN2C[C@H](Oc3ccc4nn(C(F)F)cc4n3)C[C@@H]2C)s1", "note": "[Example 154, N-(5-(((2S,4R)-4-((2-(difluoromethyl)-2H-pyrazolo[4,3-b]pyridin-5-yl)oxy)-2-methylpyrrolidin-1-yl)methyl)-4-fluorothiazol-2-yl)acetamide]", "IC50": "< 1"},
      {"smiles": "CC(=O)Nc1nc(F)c(CN2C[C@H](Oc3ccn4nc(C)nc4c3)C[C@@H]2C)s1", "note": "[Example 173, N-(4-fluoro-5-(((2S,4R)-2-methyl-4-((2-methyl-[1,2,4]triazolo[1,5-a]pyridin-7-yl)oxy)pyrrolidin-1-yl)methyl)thiazol-2-yl)acetamide]", "IC50": "< 1"},
      {"smiles": "COc1cc2c(O[C@@H]3C[C@H](C)N(Cc4sc(NC(C)=O)nc4F)C3)ccnc2cc1F", "note": "[Example 128, N-(4-fluoro-5-(((2S,4R)-4-((7-fluoro-6-methoxyquinolin-4-yl)oxy)-2-methylpyrrolidin-1-yl)methyl)thiazol-2-yl)acetamide]", "IC50": "< 1"},
      {"smiles": "CC(=O)Nc1nc(F)c(CN2C[C@H](Oc3cnc4nncn4c3)C[C@@H]2C)s1", "note": "[Example 165, N-(5-(((2S,4R)-4-([1,2,4]triazolo[4,3-a]pyrimidin-6-yloxy)-2-methylpyrrolidin-1-yl)methyl)-4-fluorothiazol-2-yl)acetamide]", "IC50": "< 1"},
      {"smiles": "CC(=O)Nc1ncc(CN2C[C@H](Oc3ccnc4c3CCCC4)C[C@@H]2C)s1", "note": "[Example 33, N-(5-(((2S,4R)-2-methyl-4-((5,6,7,8-tetrahydroquinolin-4-yl)oxy)pyrrolidin-1-yl)methyl)thiazol-2-yl)acetamide]", "IC50": 16},
      {"smiles": "CC(=O)Nc1nc(F)c(CN2C[C@H](Oc3cn4nccc4cn3)C[C@@H]2C)s1", "note": "[Example 171, N-(4-fluoro-5-(((2S,4R)-2-methyl-4-(pyrazolo[1,5-a]pyrazin-6-yloxy)pyrrolidin-1-yl)methyl)thiazol-2-yl)acetamide]", "IC50": "< 1"},
      {"smiles": "COc1ccc2ccc(O[C@@H]3C[C@H](C)N(Cc4sc(NC(C)=O)nc4F)C3)nc2n1", "note": "[Example 167, N-(4-fluoro-5-(((2S,4R)-4-((7-methoxy-1,8-naphthyridin-2-yl)oxy)-2-methylpyrrolidin-1-yl)methyl)thiazol-2-yl)acetamide]", "IC50": "< 1"},
      {"smiles": "COc1ccc2ccc(O[C@@H]3C[C@H](C)N(Cc4cnc(NC(C)=O)s4)C3)nc2c1", "note": "[Example 79, N-(5-(((2S,4R)-4-((7-methoxyquinolin-2-yl)oxy)-2-methylpyrrolidin-1-yl)methyl)thiazol-2-yl)acetamide]", "IC50": "< 1"},
      {"smiles": "CC(=O)Nc1nc(F)c(CN2C[C@H](Oc3cccc4ncnn34)C[C@@H]2C)s1", "note": "[Example 102, N-(5-(((2S,4R)-4-([1,2,4]triazolo[1,5-a]pyridin-5-yloxy)-2-methylpyrrolidin-1-yl)methyl)-4-fluorothiazol-2-yl)acetamide]", "IC50": "< 1"},
      {"smiles": "CC(=O)Nc1nc(F)c(CN2C[C@H](Oc3cnc4c(ccn4C)n3)C[C@@H]2C)s1", "note": "[Example 109, N-(4-fluoro-5-(((2S,4R)-2-methyl-4-((5-methyl-5H-pyrrolo[2,3-b]pyrazin-2-yl)oxy)pyrrolidin-1-yl)methyl)thiazol-2-yl)acetamide]", "IC50": "< 1"},
      {"smiles": "CC(=O)Nc1ncc(CN2C[C@H](Oc3ccnc4nn(C)cc34)C[C@@H]2C)s1", "note": "[Example 85, N-(5-(((2S,4R)-2-methyl-4-((2-methyl-2H-pyrazolo[3,4-b]pyridin-4-yl)oxy)pyrrolidin-1-yl)methyl)thiazol-2-yl)acetamide]", "IC50": "< 1"},
      {"smiles": "CC(=O)Nc1ncc(CN2C[C@H](Oc3ccnc4ccsc34)C[C@@H]2C)s1", "note": "[Example 5, N-(5-(((2S,4R)-2-methyl-4-(thieno[3,2-b]pyridin-7-yloxy)pyrrolidin-1-yl)methyl)thiazol-2-yl)acetamide]", "IC50": "< 1"},
      {"smiles": "CC(=O)Nc1ncc(CN2C[C@H](Oc3cnc4cc(F)c(F)cc4n3)C[C@@H]2C)s1", "note": "[Example 9, N-(5-(((2S,4R)-4-((6,7-difluoroquinoxalin-2-yl)oxy)-2-methylpyrrolidin-1-yl)methyl)thiazol-2-yl)acetamide]", "IC50": "< 1"},
      {"smiles": "CC(=O)Nc1nc(F)c(CN2C[C@H](Oc3ccc4nccn4n3)C[C@@H]2C)s1", "note": "[Example 108, N-(4-fluoro-5-(((2S,4R)-4-(imidazo[1,2-b]pyridazin-6-yloxy)-2-methylpyrrolidin-1-yl)methyl)thiazol-2-yl)acetamide]", "IC50": "< 1"}
    ]}
  ]
}
